According to ChEMBL document CHEMBL3867459, “A cell-based approach to characterize antimicrobial compounds through kinetic dose response” (Bioorg Med Chem, 2016):
Values after ≈ are worked out from the molar mass of the structure shown.

What was measured:
Escherichia coli [1] = test: Inhibition of Escherichia coli His-tagged bioA at 1 uM using KAPA as substrate after 20 mins in presence of SAM relative to control
Escherichia coli [2] = test: Antibacterial activity against Escherichia coli K-12 BW25113 measured every 10 mins after 24 hrs in presence of biotin; type: functional
Escherichia coli [3] = test: Antibacterial activity against Escherichia coli K-12 BW25113 measured every 10 mins after 24 hrs in absence of biotin; type: functional
[4] = Chemical stability assessed as compound decomposition in double distilled water at 40 ug/ml at pH 7.4 after 24 hrs by HPLC analysis; type: physicochemical; conditions: buffer, pH 7.4, 24 h

Structure (SMILES)	inhibition (Escherichia coli [1]) [%]	MIC (Escherichia coli [2]) [µg/mL]	MIC (Escherichia coli [3]) [µg/mL]	Stability [4]
CC(=O)NN	7	128	128 (≈ 1730 µM)	
O=[N+]([O-])/C=C/c1cccc(F)c1				Unstable
S=C1SCN(Cc2cccnc2)CN1Cc1cccnc1				Unstable
NNC(=O)CS	20	256	256 (≈ 2410 µM)	
CSCC(=O)NN	50	64	64 (≈ 533 µM)	
NNC(=O)CSc1ccccc1[N+](=O)[O-]	100	> 256	8 (≈ 35.2 µM)	
Cc1ccccc1SCC(=O)NN	81	> 256	16 (≈ 81.5 µM)	
NNC(=O)CSc1ccccc1Cl	63	> 256	16 (≈ 73.8 µM)	
O=C1C=CC(=O)N1Cc1cccs1				Unstable
